Laboratory results: patent publication US20230257372A1 (CHONG KUN DANG PHARMACEUTICAL CORP., priority 2020, published 2023)
Like-named read-outs stand apart in the source and are kept apart here.

Tests used:
[1] = target: T1, human recombinant HDAC1 (Homo sapiens, UniProt Q13547); assay: HDAC1 enzyme activity inhibition (HDAC Fluorimetric Drug Discovery Kit); assay type: biochemical; settings: read-out: HDAC1
T1 construct: purchased Enzo Life Science, Inc. BML-SE456
Procedure, shortened: (§1)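 Enzyme at 0.3 µg per well was reacted with 10 μM fluorogenic substrate in presence of 5-fold diluted compound, 30° C for 60 min.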

[2] = target: T2, human recombinant HDAC6 (Homo sapiens, UniProt Q9UBN7); assay: HDAC6 enzyme activity inhibition (HDAC Fluorimetric Drug Discovery Kit); assay type: biochemical
T2 construct: purchased Calbiochem Inc. 382180
T2 sequence (Q9UBN7 1-1215): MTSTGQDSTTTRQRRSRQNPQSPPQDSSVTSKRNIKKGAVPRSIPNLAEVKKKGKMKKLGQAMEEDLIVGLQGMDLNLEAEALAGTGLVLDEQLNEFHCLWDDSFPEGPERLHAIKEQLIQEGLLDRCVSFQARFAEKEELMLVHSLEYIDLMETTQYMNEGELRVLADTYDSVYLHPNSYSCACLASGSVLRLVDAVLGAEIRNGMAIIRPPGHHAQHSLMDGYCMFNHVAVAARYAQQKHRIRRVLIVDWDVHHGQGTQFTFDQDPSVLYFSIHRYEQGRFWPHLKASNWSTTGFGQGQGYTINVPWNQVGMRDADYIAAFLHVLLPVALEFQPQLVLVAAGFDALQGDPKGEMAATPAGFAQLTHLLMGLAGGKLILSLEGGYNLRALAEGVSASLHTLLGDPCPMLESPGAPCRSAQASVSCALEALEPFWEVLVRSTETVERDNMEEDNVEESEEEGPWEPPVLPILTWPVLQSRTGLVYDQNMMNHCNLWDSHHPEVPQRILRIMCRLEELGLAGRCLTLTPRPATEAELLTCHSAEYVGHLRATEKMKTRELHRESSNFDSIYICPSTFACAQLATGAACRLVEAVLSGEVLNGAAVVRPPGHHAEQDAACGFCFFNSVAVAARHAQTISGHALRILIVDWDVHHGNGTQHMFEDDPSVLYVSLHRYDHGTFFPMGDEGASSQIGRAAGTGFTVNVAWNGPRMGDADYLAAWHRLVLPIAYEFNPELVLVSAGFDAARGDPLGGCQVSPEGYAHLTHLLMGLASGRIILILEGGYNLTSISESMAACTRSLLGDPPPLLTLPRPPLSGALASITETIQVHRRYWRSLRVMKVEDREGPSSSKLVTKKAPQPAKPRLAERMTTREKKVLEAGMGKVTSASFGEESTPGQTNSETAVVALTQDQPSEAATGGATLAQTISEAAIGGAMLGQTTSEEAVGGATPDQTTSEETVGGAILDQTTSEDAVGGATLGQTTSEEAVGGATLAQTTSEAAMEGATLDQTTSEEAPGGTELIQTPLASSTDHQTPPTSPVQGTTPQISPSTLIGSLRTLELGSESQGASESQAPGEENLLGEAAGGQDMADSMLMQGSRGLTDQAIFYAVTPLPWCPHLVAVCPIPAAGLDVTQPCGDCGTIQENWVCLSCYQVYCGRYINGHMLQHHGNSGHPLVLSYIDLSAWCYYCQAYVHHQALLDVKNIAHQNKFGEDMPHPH
Procedure, shortened: as §1

[3] = human recombinant HDAC1, Fluor de Lys substrate, 30° C. 60 minutes
[4] = human recombinant HDAC6, same protocol as HDAC1
[5] = human recombinant HDAC1, IC50 calculated with GraphPad Prism
[6] = human recombinant HDAC6, IC50 calculated with GraphPad Prism

T1 sequence (Q13547 whole entry): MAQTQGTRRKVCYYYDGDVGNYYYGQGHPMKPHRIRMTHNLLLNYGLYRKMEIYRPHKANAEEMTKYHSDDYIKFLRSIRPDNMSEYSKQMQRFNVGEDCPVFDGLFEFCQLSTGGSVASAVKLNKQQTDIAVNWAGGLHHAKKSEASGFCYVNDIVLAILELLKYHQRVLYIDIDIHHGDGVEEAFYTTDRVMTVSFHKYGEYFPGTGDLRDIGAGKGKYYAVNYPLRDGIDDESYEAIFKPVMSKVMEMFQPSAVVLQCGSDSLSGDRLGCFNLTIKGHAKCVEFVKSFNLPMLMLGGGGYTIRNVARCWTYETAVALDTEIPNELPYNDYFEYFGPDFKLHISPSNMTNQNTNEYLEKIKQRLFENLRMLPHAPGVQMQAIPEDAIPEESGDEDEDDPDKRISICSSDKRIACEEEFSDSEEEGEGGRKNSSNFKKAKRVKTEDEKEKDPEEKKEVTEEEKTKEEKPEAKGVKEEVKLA

IC50 [1, 3] | HDAC6 selectivity (fold) ([2]; HDAC6 over HDAC1) | IC50 [2, 4] | IC50 [1, 5] | HDAC6 selectivity (fold) ([2]; HDAC1 IC50 / HDAC6 IC50) | IC50 [2, 6] | SMILES
> 50 µM | 90 fold | 0.551 µM |  |  |  | CC(C)(C)OC(=O)N1CCC(c2cccc(-c3cn(Cc4ncc(-c5nnc(C(F)F)o5)cc4F)nn3)c2)CC1 [Compound 18868, tert-butyl 4-(3-(1-((5-(5-(difluoromethyl)-1,3,4-oxadiazol-2-yl)-3-fluoropyridin-2-yl)methyl)-1H-1,2,3-triazol-4-yl)phenyl)piperidin-1-carboxylate]
> 50 µM | 172 fold | 0.29 µM |  |  |  | Fc1cc(-c2nnc(C(F)F)o2)ccc1Cn1cc(-c2ccccc2CNC2CCC2)nn1 [Compound 4589, N-(2-(1-(4-(5-(difluoromethyl)-1,3,4-oxadiazol-2-yl)-2-fluorobenzyl)-1H-1,2,3-triazol-4-yl)benzyl)cyclobutanamine]
> 50 µM | 1533 fold | 0.0326 µM |  |  |  | Fc1c(-c2cn(Cc3ccc(-c4nnc(C(F)F)o4)cn3)nn2)cccc1N1CCN(CC2(F)CC2)CC1 [Compound 4600, 2-(difluoromethyl)-5-(6-((4-(2-fluoro-3-(4-((1-fluorocyclopropyl)methyl)piperazin-1-yl)phenyl)-1H-1,2,3-triazol-1-yl)methyl)pyridin-3-yl)-1,3,4-oxadiazole]
 |  |  | > 50 µM | 145 fold | 0.343 µM | CC(C)(C)OC(=O)N1CCC(Cc2cn(Cc3ccc(-c4nnc(C(F)F)o4)cn3)nn2)CC1 [Compound 4000, Tert-butyl 4-((1-((5-(5-(difluoromethyl)-1,3,4-oxadiazol-2-yl)pyridin-2-yl)methyl)-1H-1,2,3-triazol-4-yl)methyl)piperidin-1-carboxylate]
 |  |  | > 50 µM | 1269 fold | 0.0394 µM | CC(C)N1CCN(Cc2ccc(-c3cn(Cc4ccc(-c5nnc(C(F)F)o5)cc4F)nn3)cc2)CC1 [Compound 4475, 2-(difluoromethyl)-5-(3-fluoro-4-((4-(4-((4-isopropylpiperazin-1-yl)methyl)phenyl)-1H-1,2,3-triazol-1-yl)methyl)phenyl)-1,3,4-oxadiazole]
 |  |  | > 50 µM | 1369 fold | 0.0365 µM | CC(C)N1CCC(Nc2ccc(F)c(-c3cn(Cc4ccc(-c5nnc(C(F)F)o5)cc4F)nn3)c2)CC1 [Compound 4436, N-(3-(1-(4-(5-(difluoromethyl)-1,3,4-oxadiazol-2-yl)-2-fluorobenzyl)-1H-1,2,3-triazol-4-yl)-4-fluorophenyl)-1-isopropylpiperidin-4-amine]
> 50 µM | 900 fold | 0.0555 µM |  |  |  | CN1Cc2ccc(-c3cn(Cc4ccc(-c5nnc(C(F)F)o5)cc4F)nn3)cc2C1 [Compound 4515, 2-(difluoromethyl)-5-(3-fluoro-4-((4-(2-methylisoindolin-5-yl)-1H-1,2,3-triazol-1-yl)methyl)phenyl)-1,3,4-oxadiazole]
> 50 µM | 529 fold | 0.0944 µM |  |  |  | CN1Cc2cccc(-c3cn(Cc4ccc(-c5nnc(C(F)F)o5)cc4F)nn3)c2C1 [Compound 4534, 2-(difluoromethyl)-5-(3-fluoro-4-((4-(2-methylisoindolin-4-yl)-1H-1,2,3-triazol-1-yl)methyl)phenyl)-1,3,4-oxadiazole]
> 50 µM | 2793 fold | 0.0179 µM |  |  |  | CC1CCN(Cc2ccc(-c3cn(Cc4ccc(-c5nnc(C(F)F)o5)cc4F)nn3)cc2)CC1 [Compound 4611, 2-(difluoromethyl)-5-(3-fluoro-4-((4-(4-((4-methylpiperidin-1-yl)methyl)phenyl)-1H-1,2,3-triazol-1-yl)methyl)phenyl)-1,3,4-oxadiazole]
 |  |  | > 50 µM | 912 fold | 0.0548 µM | CCCN1CCN(c2cccc(-c3cn(Cc4ccc(-c5nnc(C(F)F)o5)cc4)nn3)c2)CC1 [Compound 4369, 2-(difluoromethyl)-5-(4-((4-(3-(4-propylpiperazin-1-yl)phenyl)-1H-1,2,3-triazol-1-yl)methyl)phenyl)-1,3,4-oxadiazole]

The next lines start with the molecule.

SMILES | IC50 [1, 3] | HDAC6 selectivity (fold) ([2]; HDAC6 over HDAC1) | IC50 [2, 4] | IC50 [1, 5] | HDAC6 selectivity (fold) ([2]; HDAC1 IC50 / HDAC6 IC50) | IC50 [2, 6]
CCCCc1cn(Cc2ccc(-c3nnc(C(F)F)o3)cn2)nn1 [Compound 3832, 2-(6-((4-butyl-1H-1,2,3-triazol-1-yl)methyl)pyridin-3-yl)-5-(difluoromethyl)-1,3,4-oxadiazole] |  |  |  | > 50 µM | 263 fold | 0.19 µM
CCCN1CCC(Nc2ccc(F)c(-c3cn(Cc4ccc(-c5nnc(C(F)F)o5)cc4F)nn3)c2)CC1 [Compound 4438, N-(3-(1-(4-(5-(difluoromethyl)-1,3,4-oxadiazol-2-yl)-2-fluorobenzyl)-1H-1,2,3-triazol-4-yl)-4-fluorophenyl)-1-propylpiperidin-4-amine] |  |  |  | > 50 µM | 934 fold | 0.0535 µM
FC(F)c1nnc(-c2ccc(Cn3cc(-c4cccc(CN5CC(F)(F)C5)c4)nn3)nc2)o1 [Compound 4400, 2-(6-((4-(3-((3,3-difluoroazetidin-1-yl)methyl)phenyl)-1H-1,2,3-triazol-1-yl)methyl)pyridin-3-yl)-5-(difluoromethyl)-1,3,4-oxadiazole] |  |  |  | > 50 µM | 1628 fold | 0.0307 µM
FC(F)c1nnc(-c2ccc(Cn3cc(-c4cccc5[nH]cc(CN6CCOCC6)c45)nn3)nc2)o1 [Compound 4023, 4-((4-(1-((5-(5-(difluoromethyl)-1,3,4-oxadiazol-2-yl)pyridin-2-yl)methyl)-1H-1,2,3-triazol-4-yl)-1H-indol-3-yl)methyl)morpholine] |  |  |  | > 50 µM | 32 fold | 1.56 µM
OCCCCc1cn(Cc2ccc(-c3nnc(C(F)F)o3)cn2)nn1 [Compound 3834, 4-(1-((5-(5-(difluoromethyl)-1,3,4-oxadiazol-2-yl)pyridin-2-yl)methyl)-1H-1,2,3-triazol-4-yl)butan-1-ol] |  |  |  | > 50 µM | 217 fold | 0.238 µM
CC(C)N1CCC(F)(c2cn(Cc3ccc(-c4nnc(C(F)F)o4)cn3)nn2)CC1 [Compound 4007, 2-(difluoromethyl)-5-(6-((4-(4-fluoro-1-isopropylpiperidin-4-yl)-1H-1,2,3-triazol-1-yl)methyl)pyridin-3-yl)-1,3,4-oxadiazole] |  |  |  | > 50 µM | 2873 fold | 0.0174 µM
Fc1ccc(-c2cn(Cc3ccc(-c4nnc(C(F)F)o4)cn3)nn2)cc1F [Compound 3737, 2-(difluoromethyl)-5-(6-((4-(3,4-difluorophenyl)-1H-1,2,3-triazol-1-yl)methyl)pyridin-3-yl)-1,3,4-oxadiazole] |  |  |  | > 50 µM | 1043 fold | 0.0479 µM
Fc1cc(-c2nnc(C(F)F)o2)ccc1Cn1cc(-c2ccc3c(c2)CCN(C2CN(C4COC4)C2)C3)nn1 [Compound 4395, 2-(difluoromethyl)-5-(3-fluoro-4-((4-(2-(1-(oxetan-3-yl)azetidin-3-yl)-1,2,3,4-tetrahydroisoquinolin-6-yl)-1H-1,2,3-triazol-1-yl)methyl)phenyl)-1,3,4-oxadiazole] |  |  |  | > 50 µM | 1024 fold | 0.0488 µM
FC(F)c1nnc(-c2ccc(Cn3cc(-c4ccc5c(c4)CN(C4COC4)CC5)nn3)nc2)o1 [Compound 4213, 2-(difluoromethyl)-5-(6-((4-(2-(oxetan-3-yl)-1,2,3,4-tetrahydroisoquinolin-7-yl)-1H-1,2,3-triazol-1-yl)methyl)pyridin-3-yl)-1,3,4-oxadiazole] |  |  |  | > 50 µM | 1730 fold | 0.0289 µM
CN(C)Cc1cc(-c2cn(Cc3ccc(-c4nnc(C(F)F)o4)cc3F)nn2)cs1 [Compound 18188, 1-(4-(1-(4-(5-(difluoromethyl)-1,3,4-oxadiazol-2-yl)-2-fluorobenzyl)-1H-1,2,3-triazol-4-yl)thiophen-2-yl)-N,N-dimethylmethanamine] | > 50 µM | 668 fold | 0.0748 µM |  |  | 
